Literature values, collected in patent US6576633B1, “Stable liquid antimicrobial suspension compositions containing quarternaries prepared from hexamethylenetetramine and certain halohydrocarbons” (The Dow Chemical Company, priority 1996, dated 2003).

Conditions: conventional 30 percent aqueous solution; within one month

Row | Structure (SMILES) | chemical degradation [%]
1 | ClC=CC[N+]12CN3CN(CN(C3)C1)C2.[Cl-] (mixture of isomers) [cis/trans-compound, 1-(3-chloroallyl)-3,5,7-triaza-1-azoniaadamantane chloride] | ~30
2 | ClC=CC[N+]12CN3CN(CN(C3)C1)C2.[Cl-] [cis-compound, 1-(3-chloroallyl)-3,5,7-triaza-1-azoniaadamantane chloride] | ~30
